How the values were obtained:
α1A AR = biological target: T1, α1A AR (Homo sapiens, UniProt P35348); experiment: Ca2+ FLIPR assay in human adrenergic Alpha1A CHO-K1 cell line (Test 1); format: cell-based; details: read-out: CHO cells EC50 α1A AR
T1 sequence (P35348 1-466): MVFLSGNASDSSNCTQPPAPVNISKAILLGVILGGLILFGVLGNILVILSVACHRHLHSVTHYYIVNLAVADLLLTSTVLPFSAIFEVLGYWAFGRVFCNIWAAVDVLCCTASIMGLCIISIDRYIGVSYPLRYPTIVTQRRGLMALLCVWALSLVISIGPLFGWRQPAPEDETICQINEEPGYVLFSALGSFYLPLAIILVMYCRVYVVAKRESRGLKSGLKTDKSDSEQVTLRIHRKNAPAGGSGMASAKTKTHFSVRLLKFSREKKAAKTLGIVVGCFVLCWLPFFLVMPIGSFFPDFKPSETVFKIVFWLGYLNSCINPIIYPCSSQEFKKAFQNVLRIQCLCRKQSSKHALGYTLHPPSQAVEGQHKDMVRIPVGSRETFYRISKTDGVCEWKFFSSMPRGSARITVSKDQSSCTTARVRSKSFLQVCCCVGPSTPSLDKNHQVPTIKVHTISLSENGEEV
Experimental: Compounds acting as agonists induce a transient increase of intracellular calcium. This was recorded on the FLIPR system. A measurement of the signal baseline was first recorded every second for 2 minutes before the injection of the compounds. […] Low controls (unstimulated cells) were determined with the addition of 5 μL of assay buffer.

[1] = Comparative solubilities in H2O with pH adjustment; format: physicochemical
Experimental: The relative solubilities of the free base form and the acetate and glycolate salt forms of Compound A were analysed and the results are show in the table below. Solutions were titrated with addition of HCl or NaOH for pH adjustment. The improved aqueous solubilities of the acetate and glycolate salt forms relative to the free base form of Compound A make the acetate and glycolate salts of Compound A more suitable for subcutaneous injection or infusion.

[2] = system: isolated rabbit sino-atrial nodes; experiment: Sino-atrial node beating rate in isolated rabbit right atrium
Experimental: New Zealand white female rabbits were killed by exsanguination after a deep anesthesia using a mixture of ketamine/xylazine, i.v. The heart was quickly removed and placed in Tyrode's solution. […] The right atrium was separated from the rest of the heart. The preparations were mounted in a tissue bath and kept at 37±0.5° C. for at least one hour stabilization. Action potentials (AP) were intracellularly recorded with a standard glass microelectrode filled with 3 M KCl, connected to a high input impedance-neutralizing amplifier (VF-180 microelectrode amplifier, Bio-Logic). […] After one hour of stabilization, compounds were added to the Tyrode's solution at the increasing concentrations, each concentration being maintained for 30 minutes. There was no wash-out between two concentrations. Electrophysiological measurements were made by analyzing action potentials during the experimental protocol at the end of the 30 minute perfusion period. The SA spontaneous frequency was evaluated by counting the number of beats every 10 seconds to express the results in number of beats per minute (bpm). Data were expressed as mean±SEM.

[3] = system: isolated Langendorff perfused rabbit hearts; experiment: Automaticity in isolated Langendorff perfused rabbit hearts
[4] = system: Wistar Han (W-H) IGS rats; experiment: Heart rate in vivo in rats after s.c. bolus; design: species or system rat; details: up to 0.3 mg/kg, compared to formoterol
Source text: Wistar Han (W-H) IGS (International Genetic Standard) rats (Crl:WI(Han)) were purchased from Charles River Laboratories. Femoral arterial and venous catheters were chronically implanted and exteriorized through a spring tether-swivel system and housed in specialized cages. Arterial catheter was connected to a pressure transducer to continuously measure pulse pressure, mean arterial pressure and heart rate, which was derived from the blood pressure signal, via a digital data acquisition system. Compounds were administered via s.c catheter implanted through the skin buttun. Values are expressed as means±SEM (n=3).

Rhesus monkeys = experiment: Heart rate in vivo in rhesus monkeys after single s.c. administration; design: species or system rhesus monkey; details: s.c. bolus, up to 0.03 mg/kg; compared to formoterol
Experimental: Rhesus monkeys, 24 females with body weight around 4 to 8 kg, were randomized into 4 groups of n=6. The animals were restrained on a chair up to 4 hours after single subcutaneous administration of compounds, and then returned to their pens. Heart rates were measured using a Surgivet V3304 device. Values are expressed as means±SEM (n=6).

Serotonin 5-HT2C = biological target: T2, Serotonin 5-HT2C (Homo sapiens, UniProt P28335); experiment: Aequorin agonist assay in CHO-K1 cells expressing recombinant Serotonin 5-HT2C and Gα16; format: cell-based
T2 construct: expressed in transfected cells; host or cells: CHO-K1 cells coexpressing mitochondrial apoaequorin and Gα16
Experimental: CHO-K1 cells coexpressing mitochondrial apoaequorin, recombinant Serotonin 5-HT2Cne and the promiscuous G protein Gα16, grown to mid-log phase in culture media without antibiotics were detached with PBS-EDTA, centrifuged and resuspended in assay buffer (DMEM/HAM's F12 with HEPES, without phenol red+0.1% BSA protease free) at a concentration of 1×10^6 cells/ml. Cells were incubated at room temperature for at least 4 h with coelenterazine h. […] For agonist testing, 50 μL of cell suspension were mixed with 50 μL of test or reference agonist in a 96-well plate. The resulting emission of light is recorded using Hamamatsu Functional Drug Screening System 6000 (FDSS 6000) luminometer. Agonist activity of test compound was expressed as a percentage of the activity of the reference agonist at its EC100 concentration.

β2 AR = β2 AR (Homo sapiens, UniProt P07550); experiment: cAMP response in CHO cells stably transfected with human β2 adrenoceptor (Test 1)
Sequence of β2 AR (P07550 whole entry): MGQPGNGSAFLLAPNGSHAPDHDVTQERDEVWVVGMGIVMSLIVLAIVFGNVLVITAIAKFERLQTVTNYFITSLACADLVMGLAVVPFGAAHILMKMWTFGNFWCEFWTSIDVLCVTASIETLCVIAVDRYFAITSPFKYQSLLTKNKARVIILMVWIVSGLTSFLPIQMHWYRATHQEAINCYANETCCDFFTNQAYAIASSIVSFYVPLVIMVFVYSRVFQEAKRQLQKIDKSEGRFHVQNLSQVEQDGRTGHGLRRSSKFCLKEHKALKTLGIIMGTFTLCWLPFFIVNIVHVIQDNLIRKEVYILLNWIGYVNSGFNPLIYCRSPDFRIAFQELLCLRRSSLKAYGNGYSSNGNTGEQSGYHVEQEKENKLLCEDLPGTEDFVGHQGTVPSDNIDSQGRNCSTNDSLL

T2 sequence (P28335 33-458): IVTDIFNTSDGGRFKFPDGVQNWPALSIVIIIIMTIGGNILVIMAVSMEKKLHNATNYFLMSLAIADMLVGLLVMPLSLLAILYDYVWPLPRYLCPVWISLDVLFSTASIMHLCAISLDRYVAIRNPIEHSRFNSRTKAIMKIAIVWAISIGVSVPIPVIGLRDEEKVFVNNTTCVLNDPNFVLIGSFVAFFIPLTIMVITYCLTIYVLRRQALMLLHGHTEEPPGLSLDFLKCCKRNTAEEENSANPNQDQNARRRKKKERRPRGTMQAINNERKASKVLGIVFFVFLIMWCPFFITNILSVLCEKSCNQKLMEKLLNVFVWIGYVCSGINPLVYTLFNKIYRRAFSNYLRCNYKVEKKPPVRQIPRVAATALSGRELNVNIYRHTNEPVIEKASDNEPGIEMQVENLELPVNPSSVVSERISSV

Structure (SMILES)	melting point	EC50 (α1A AR)	Compound A free base solubility in H2O, Conc ([1]; pH 7.3)	Compound A free base solubility in H2O, Conc ([1]; pH 7.8)	Sino-Atrial node beating rate, maximum increase (n = 6) [2]	direct effects on the pacemaker activity ([3]; compared to Formoterol)	Automaticity, maximum increase (n = 3) ([3]; isolated rabbit heart)	heart rate change in rats [4]	heart rate change in rhesus monkeys (Rhesus monkeys)	fold less active on 5-HT2C when compared to the racemate or the (S) enantiomer (Serotonin 5-HT2C)	fold less active on 5-HT2C when compared to β2 AR agonist activity (Serotonin 5-HT2C; 5-HT2C EC50 versus β2 AR EC50)	EC50 (β2 AR)
CCCCOc1ccc(CC(C)(C)NC[C@H](O)c2cc(O)cc3[nH]c(=O)sc23)cc1.O=C(O)CO [Compound A glycolate salt, (R)-7-(2-(1-(4-butoxyphenyl)-2-methylpropan-2-ylamino)-1-hydroxyethyl)-5-hydroxybenzo[d]thiazol-2(3H)-one glycolate salt]	~ 188 °C											
CCCCOc1ccc(CC(C)(C)NC[C@H](O)c2cc(O)cc3[nH]c(=O)sc23)cc1 [Compound A, (R)-7-(2-(1-(4-butoxyphenyl)-2-methylpropan-2-ylamino)-1-hydroxyethyl)-5-hydroxybenzo[d]thiazol-2(3H)-one]		> 10 µM	<10 µg/mL	<10 µg/mL	+6.2%	less direct effects	+17%	less heart rate increases	less heart rate increase	over 10 fold	50 fold	< 0.01 µM
